# Patent publication US20260262635A1, “BAR COMPOSITION HAVING ENHANCED ANTIMICROBIAL ACTIVITY” (Conopco, Inc., d/b/a UNILEVER, priority 2021, published 2026)
# Test system: S. aureus ATCC 6538
# Test: Time-kill assay adapted from ASTM E2315-16, S. aureus
# Type: cell-based
# Conditions: S. aureus and E. coli, 30 seconds of contact
# Procedure: Aqueous slurries were prepared whereby gratings from the bars made in the Samples of Table I were mixed with water to form a test solution containing 10% by weight of the initial bar component. In the second method, raw bar components, as depicted in the Samples in Table II, were mixed with water to form a test solution containing a total of 10% raw bar component to simulate an aqueous slurry of a bar composition. For each sample, aqueous slurries were mixed at 50° C. to simulate customary consumer washing conditions.
# As to the microbes, E. coli ATCC 10536 and S. aureus ATCC 6538 were used in this study to represent Gram negative and Gram positive bacteria, respectively. The bacteria were stored at −80° C. Fresh isolates were cultured twice on Tryptic Soy Agar plates for 24 hours at 37° C. before each experiment.
# Test solutions were prepared. In the first method and for the aqueous slurries made from the bar compositions described in Table I, a composition (typically containing up to 15% surfactant) was mixed with water to form a test solution containing 10% weight percent of the initial formulation. In the second method and for the raw ingredients combined in Table II, the same were mixed with water at levels that simulate a 10% dilution of the slurries. In each assessment, test solutions were heated and mixed at […]
# The log reduction was calculated using the formula: […]
smiles,measurement,value
"CC(O)C(=O)O (stereo not shown) [lactic acid, Lactic acid]",antimicrobial reduction / efficacy (in words),performed poorly against S. aureus
